Test results reported in patent US20080139546A1, “Tetrahydroquinoline, indoline, and related aniline derivatives of heterocycle-fused benzodioxan methylamines” (Wyeth, priority 2006, published 2008).

How the values were obtained:
Human 5-HT1A Receptor [1] = target: T1, Human 5-HT1A Receptor (Homo sapiens, UniProt P08908); test: 8-OH-DPAT binding, human 5-HT1A receptor cell line (displacement of [3H]-OHDPAT, stably transfected CHO cells); details: [3H]-OHDPAT 1.5 nM, read-out: h5HT1A Affinity Ki (nM) (Example 17)
T1 construct: expressed in transfected cells; host or cells: CHO cells (Chinese hamster ovary), stably transfected
T1 sequence (P08908 1-422): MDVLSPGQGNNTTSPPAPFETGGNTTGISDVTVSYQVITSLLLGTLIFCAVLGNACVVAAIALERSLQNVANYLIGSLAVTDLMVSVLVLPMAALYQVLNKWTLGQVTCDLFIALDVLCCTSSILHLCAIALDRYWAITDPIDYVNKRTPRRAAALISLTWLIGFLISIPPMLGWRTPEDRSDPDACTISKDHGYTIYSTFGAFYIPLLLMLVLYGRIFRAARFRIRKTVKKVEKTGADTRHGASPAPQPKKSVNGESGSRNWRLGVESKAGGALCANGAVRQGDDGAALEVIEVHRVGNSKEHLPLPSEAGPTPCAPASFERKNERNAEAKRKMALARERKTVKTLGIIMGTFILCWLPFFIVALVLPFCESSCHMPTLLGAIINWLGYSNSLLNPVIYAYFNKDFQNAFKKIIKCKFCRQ
Procedure: Affinity for the serotonin 5-HT1A receptor was established by testing each compound's ability to displace [^3H]-OHDPAT (dipropylaminotetralin) from the 5-HT1A serotonin receptor following a modification of the procedure of Hall et al., J. Neurochem. 44:1685-1696 (1985). Stably transfected Chinese hamster ovary (CHO) cells were plated and grown in Dulbecco's Modified Eagle's Medium (DMEM) containing 10% heat inactivated fetal bovine serum (FBS) and non-essential amino acids. Cells were scraped off the plate, transferred to centrifuge tubes, and washed twice by centrifugation (2000 rpm for 10 minutes at 4° C.) in buffer (50 mM Tris, pH 7.5). The resulting pellets were aliquoted and stored at −80° C. On the day of assay, the cells were thawed on ice, and re-suspended in buffer. The binding assay was performed in a 96-well microtiter plate in a total volume of about 250 μL. Non-specific binding was determined in the presence of 10 μM 5-HT; the final radio ligand concentration was 1.5 nM. Following a 30 minute incubation at room temperature, the reaction was terminated by the addition of ice cold buffer and rapid filtration through a GF/B filter presoaked for 30 minutes in 0.5% polyethyleneimine (PEI). Compounds were initially tested in a single point assay to determine percent inhibition at 1 μM, 0.1 μM, and 0.01 μM. Subsequently, Ki values were determined for compounds defined to be active. Percent inhibition Ki was determined by RFComp (Lundon Software, Chagrin Falls, Ohio), with serotonin and 8-OH-DPAT as the reference compounds.
High affinity for the receptor is evidence of a compound's ability to directly modulate activity at the 5-HT1A receptor.

Human 5-HT1A Receptor [2] = target: T1, Human 5-HT1A Receptor; test: cAMP radioimmunoassay (RIA) in human 5-HT1A receptor cell line, inhibition of forskolin stimulated cAMP; assay type: cell-based; details: forskolin (1 μM) stimulated cAMP, stably transfected CHO cells; read-out: h5HT1A cAMP EC50 (nM) (Example 19)
Procedure: Certain effects of 5-HT (e.g., certain effects mediated by the interaction of 5-HT with the 5-HT1A receptor) are mediated by cAMP. To test the ability of compounds described herein to modulate cAMP, a radioimmunoassay (RIA) method was used. Briefly, stably transfected CHO cells were grown in DMEM containing 10% heat inactivated FBS and non-essential amino acids. The cells were plated at a density of 10^6 cells per well in a 96-well plate and incubated for 2 days in a CO2 incubator. On the second day, the medium was replaced with 0.1 ml Krebs and incubated 15 minutes at 37° C. The medium was then replaced with Krebs buffer containing 500 μM isobutylmethylxanthine (IBMX) and incubated for approximately 5 minutes at 37° C. Wells were treated with forskolin (1 μM final concentration) followed immediately by test compound (0.1 and 1 μM for the initial screen) and incubated for an additional 10 minutes at 37° C. The reaction was terminated by removal of the medium and the addition of 0.5 ml ice cold assay buffer (supplied in the RIA kit). Plates were stored at −20° C. prior to assessment of cAMP formation by RIA. The cAMP kit was obtained from Amersham (Piscataway, N.J.) and the RIA was performed as per the kit instructions. In the initial screen, percent inhibition of forskolin stimulated cAMP was measured. […] These compounds behaved as either full agonists or partial agonists. 5-HT, BMY 7378, buspirone, and 8-OH-DPAT were used as reference compounds.
All compounds tested inhibited the forskolin-stimulated increase in […].

serotonin transporter = target: T2, serotonin transporter (Rattus norvegicus, UniProt P31652); test: 3H-paroxetine binding to rat frontal cortical membranes, affinity for the serotonin transporter; details: 3H-paroxetine 0.1 nM, male Sprague Dawley rat frontal cortical membranes; read-out: 5HT Uptake r5HT-T Ki (nM) (Example 18)
T2 construct: frontal cortical membranes prepared from male Sprague Dawley rats; from tissue; host or cells: rat frontal cortex membranes (male Sprague Dawley)
T2 sequence (P31652 whole entry): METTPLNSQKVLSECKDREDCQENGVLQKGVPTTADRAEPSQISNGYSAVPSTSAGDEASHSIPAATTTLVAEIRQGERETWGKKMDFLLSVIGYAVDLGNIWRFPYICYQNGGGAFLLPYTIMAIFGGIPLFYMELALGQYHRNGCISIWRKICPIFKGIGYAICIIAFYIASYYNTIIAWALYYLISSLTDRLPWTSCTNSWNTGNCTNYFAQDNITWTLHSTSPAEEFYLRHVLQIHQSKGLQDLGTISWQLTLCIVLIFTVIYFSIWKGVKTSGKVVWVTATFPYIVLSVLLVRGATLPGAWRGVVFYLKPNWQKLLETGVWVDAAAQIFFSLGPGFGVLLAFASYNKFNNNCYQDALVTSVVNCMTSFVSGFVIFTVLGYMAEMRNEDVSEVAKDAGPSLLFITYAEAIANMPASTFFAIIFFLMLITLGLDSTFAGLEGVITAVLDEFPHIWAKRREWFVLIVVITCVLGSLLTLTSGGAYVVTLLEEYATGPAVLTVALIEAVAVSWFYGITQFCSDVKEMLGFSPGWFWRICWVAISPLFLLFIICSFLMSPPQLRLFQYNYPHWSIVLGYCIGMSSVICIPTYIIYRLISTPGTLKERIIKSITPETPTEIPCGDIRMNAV
Procedure: A protocol similar to that used by Cheetham et al. (Neuropharmacol. 32:737-743, 1993) was used to determine the affinity of compounds for the serotonin transporter (i.e., by determining the relative ability of a compound to displace ^3H-paroxetine from male rat frontal cortical membranes). Briefly, frontal cortical membranes prepared from male Sprague Dawley rats were incubated with ^3H-paroxetine (0.1 nM) for 60 minutes at 25° C. All tubes also contained either vehicle, test compound (one to eight concentrations), or a saturating concentration of fluoxetine (10 μM) to define […]. All reactions were terminated by the addition of ice cold Tris buffer followed by rapid filtration using a Tom Tech filtration device to separate bound from free ^3H-paroxetine. Bound radioactivity was quantitated using a Wallac 1205 Beta Plate® counter. Nonlinear regression analysis was used to determine IC50 values which were converted to Ki values using the method of Cheng and Prusoff (Biochem. Pharmacol. 22: 3099-3108, 1973); […].
This affinity translates to the blockade of 5-HT uptake, i.e., the ability of a compound increase synaptic 5-HT levels and to act like an SSRI.

Human 5-HT Transporter = target: T3, Human 5-HT Transporter (Homo sapiens, UniProt P31645); test: Inhibition of 3H-5-HT uptake by Jar cells possessing the human 5-HT transporter; assay type: cell-based; details: Jar cells treated with staurosporine, read-out: 5HT Uptake h5HT-T IC50 (nM) (Example 20)
T3 construct: endogenous in cells; host or cells: Jar cells (human carcinoma cell line), treated with staurosporine
T3 sequence (P31645 whole entry): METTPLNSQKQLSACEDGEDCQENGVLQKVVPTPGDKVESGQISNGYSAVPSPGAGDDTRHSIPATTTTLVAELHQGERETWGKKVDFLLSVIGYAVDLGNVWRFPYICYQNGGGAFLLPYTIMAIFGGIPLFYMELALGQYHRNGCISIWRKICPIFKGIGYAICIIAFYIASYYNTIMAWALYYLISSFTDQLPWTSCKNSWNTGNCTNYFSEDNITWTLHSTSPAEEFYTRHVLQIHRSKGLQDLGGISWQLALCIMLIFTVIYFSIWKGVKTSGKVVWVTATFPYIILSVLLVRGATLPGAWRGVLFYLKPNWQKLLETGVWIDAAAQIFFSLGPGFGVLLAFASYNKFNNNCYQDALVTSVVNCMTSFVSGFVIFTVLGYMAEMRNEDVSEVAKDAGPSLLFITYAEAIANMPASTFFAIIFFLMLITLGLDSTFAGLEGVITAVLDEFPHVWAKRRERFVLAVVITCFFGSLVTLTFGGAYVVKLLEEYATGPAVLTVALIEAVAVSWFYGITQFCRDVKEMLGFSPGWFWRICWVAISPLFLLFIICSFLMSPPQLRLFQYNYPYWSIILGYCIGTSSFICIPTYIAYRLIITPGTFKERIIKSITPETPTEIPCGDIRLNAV
Procedure: [Staurosporine greatly increases the expression of the 5-HT-Transporter.] On the day of assay, vehicle, excess of fluoxetine, or test compound was added to various wells on the plate. ^3H-5-HT was then aliquoted into all wells and the samples were incubated at 37° C. for 5 minutes. The wells were then washed with ice cold 50 mM Tris HCl (pH 7.4) buffer and aspirated to remove free ^3H-5-HT. 25 μL 0.25 M NaOH was then added to each well to lyse the cells and 75 μL scintillation cocktail (Microscint™ 20) was added prior to quantitation on a Packard TopCount® machine. Tubes with vehicle represent total possible uptake, radioactivity counted in tubes with excess fluoxetine represent nonspecific binding/uptake and were subtracted from the total possible uptake to give total possible specific uptake. This nonspecific binding (usual low in number) was then subtracted from the counts obtained in wells with various test compounds (or different concentrations of a test compound) resulting in uptake in the presence of drug. Specific uptake was then expressed as a percent of control values and was analyzed using nonlinear regression analysis (Prizm) to determine IC50 values. If the compound was active in inhibiting 5-HT uptake, its counts will be close to that obtained with fluoxetine.
This blockade, in vivo, would be expected to result in an increase in extracellular 5-HT concentrations.

Compound	Ki (Human 5-HT1A Receptor [1]) [nM]	EC50 (Human 5-HT1A Receptor [2]) [nM]	Ki (serotonin transporter) [nM]	IC50 (Human 5-HT Transporter) [nM]
Cc1ccc2c3c(ccc2n1)OC[C@H](CNCCCN1CCOc2ccccc21)O3 [Example 6, 3-(2,3-dihydro-4H-1,4-benzoxazin-4-yl)-N-{[(2S)-8-methyl-2,3-dihydro[1,4]dioxino[2,3-f]quinolin-2-yl]methyl}propan-1-amine]	2.58	0.77	40.8	–
Cc1ccc2c3c(ccc2n1)OC[C@H](CNCCCN1CCCCc2ccccc21)O3 [Example 12, N-{[(2S)-8-methyl-2,3-dihydro[1,4]dioxino[2,3-f]quinolin-2-yl]methyl}-3-(2,3,4,5-tetrahydro-1H-1-benzazepin-1-yl)propan-1-amine]	0.79	3.06	36.2	–
Cc1ccc2c3c(ccc2n1)OC[C@H](CNCCCN1CCc2cc(F)ccc21)O3 [Example 2, 3-(5-fluoro-2,3-dihydro-1H-indol-1-yl)-N-{[(2S)-8-methyl-2,3-dihydro[1,4]dioxino[2,3-f]quinolin-2-yl]methyl}propan-1-amine]	0.6	3.76	10.2	–
Cc1ccc2c3c(ccc2n1)OC[C@H](CNCCCN1CCOc2ccc(F)cc21)O3 [Example 11, 3-(6-fluoro-2,3-dihydro-4H-1,4-benzoxazin-4-yl)-N-{[(2S)-8-methyl-2,3-dihydro[1,4]dioxino[2,3-f]quinolin-2-yl]methyl}propan-1-amine]	2.77	1.43	14.7	4710
Cc1ccc2c3c(ccc2n1)OC[C@H](CNCCCN1CCCc2cc(F)c(F)cc21)O3 [Example 7, 3-(6,7-difluoro-3,4-dihydroquinolin-1(2H)-yl)-N-{[(2S)-8-methyl-2,3-dihydro[1,4]dioxino[2,3-f]quinolin-2-yl]methyl}propan-1-amine]	3.73	1.63	12.3	77
Cc1ccc2c3c(ccc2n1)OC[C@H](CNCCCN1CCCc2cc(F)c(Cl)cc21)O3 [Example 10, 3-(7-chloro-6-fluoro-3,4-dihydroquinolin-1(2H)-yl)-N-{[(2S)-8-methyl-2,3-dihydro[1,4]dioxino[2,3-f]quinolin-2-yl]methyl}propan-1-amine]	3.22	1.95	116	–
Cc1ccc2c3c(ccc2n1)OC[C@H](CNCCCN(C)c1ccccc1Cl)O3 [Example 13, N-(2-chlorophenyl)-N-methyl-N′-{[(2S)-8-methyl-2,3-dihydro[1,4]dioxino[2,3-f]quinolin-2-yl]methyl}propane-1,3-diamine]	0.57	2.49	3.5	–
Cc1ccc2c3c(ccc2n1)OC[C@H](CNCCCN1CCCc2ccccc21)O3 [Example 1, 3-(3,4-dihydroquinolin-1(2H)-yl)-N-{[(2S)-8-methyl-2,3-dihydro[1,4]dioxino[2,3-f]quinolin-2-yl]methyl}propan-1-amine]	2.45	1.58	13	150
Cc1ccc2c3c(ccc2n1)OC[C@H](CNCCCCN1CCCc2ccccc21)O3 [Example 15, 4-(3,4-dihydroquinolin-1(2H)-yl)-N-{[(2S)-8-methyl-2,3-dihydro[1,4]dioxino[2,3-f]quinolin-2-yl]methyl}butan-1-amine]	0.66	9.25	11.8	438
Cc1ccc2c3c(ccc2n1)OC[C@H](CNCCCN1CCc2ccccc21)O3 [Example 5, 3-(2,3-dihydro-1H-indol-1-yl)-N-{[(2S)-8-methyl-2,3-dihydro[1,4]dioxino[2,3-f]quinolin-2-yl]methyl}propan-1-amine]	0.62	3.44	21.1	180
Cc1ccc2c3c(ccc2n1)OC[C@H](CNCCCCN1CCc2ccc(F)cc21)O3 [Example 14, 4-(6-fluoro-2,3-dihydro-1H-indol-1-yl)-N-{[(2S)-8-methyl-2,3-dihydro[1,4]dioxino[2,3-f]quinolin-2-yl]methyl}butan-1-amine]	0.19	1.66	3.3	161
Cc1ccc2c3c(ccc2n1)OC[C@H](CNCCCN1CCc2ccc(F)cc21)O3 [Example 3, 3-(6-fluoro-2,3-dihydro-1H-indol-1-yl)-N-{[(2S)-8-methyl-2,3-dihydro[1,4]dioxino[2,3-f]quinolin-2-yl]methyl}propan-1-amine]	0.35	1.88	2.8	107
Cc1ccc2c3c(ccc2n1)OC[C@H](CNCCCN1CCCc2cc(F)cc(F)c21)O3 [Example 9, 3-(6,8-difluoro-3,4-dihydroquinolin-1(2H)-yl)-N-{[(2S)-8-methyl-2,3-dihydro[1,4]dioxino[2,3-f]quinolin-2-yl]methyl}propan-1-amine]	1.41	1.18	27	–
Cc1ccc2c3c(ccc2n1)OC[C@H](CNCCCN1CCCc2cc(F)ccc21)O3 [Example 8, 3-(6-fluoro-3,4-dihydroquinolin-1(2H)-yl)-N-{[(2S)-8-methyl-2,3-dihydro[1,4]dioxino[2,3-f]quinolin-2-yl]methyl}propan-1-amine]	1.44	1.48	7.2	76.9
